# Assays:
# [1] = up to levels of 4 μM; cited from earlier work
# [2] = system: LNCaP prostate cancer cell; assay: DHT induced LNCaP prostate cancer cell proliferation ([3H]thymidine incorporation); assay type: cell-based; details: 3 days
# Method: FIG. 2. […] LNCaP prostate cancer cell were preincubated for 24 hours in 1.5% serum and then growth ([^3]thymidine incorporation) was stimulated by addition of […] (DHT). Stimulated cells were treated for 3 days with the indicated concentrations of the phytoene and phytofluene (phytoene) mixture alone or in combination with 0.3 μM Lycopene (plus lycopene) (FIG. 2A). The high concentrations of lycopene and phytoene plus phytofluene (FIG. 2B) are indicated. Data presented are the mean±SE of 2-3 independent experiments performed in quadruplicates.
# FIG. 3. […] LNCaP prostate cancer cell were preincubated for 24 hours in 1.5% serum and then growth ([^3]thynidine incorporation) was stimulated by addition of 10^−9 M dihydrotestosterone DHT). Stimulated cells were treated for 3 days with the indicated concentrations of the beta-carotene alone or in combination with 0.3 μM lycopene (FIG. 3A). The high concentrations of lycopene and beta-carotene (FIG. 3B) are indicated. Data presented are the mean±SE of 2-3 independent experiments performed in quadruplicates.
# [3] = system: MCF-7 mammary cancer cell; assay: MCF-7 mammary cancer cell proliferation ([3H]thymidine incorporation), stimulated by 3% serum; assay type: cell-based
# Method: (§1) FIG. 1. […] MCF-7 mammary cancer cell were preincubated for 24 hours in 0.5% serum and then growth ([^3H]thymidine incorporation) was stimulated by 3% serum. Stimulated cells were treated for 3 days with the indicated concentrations of the astaxanthin alone or in combination with 0.3 μM lycopene (FIG. 1A). The high concentrations of lycopene and astaxanthin (FIG. 1B) are indicated. Data presented are the mean±SE of 2-3 independent experiments performed in quadruplicates.
# as §1, with “FIG. 4.” for “FIG. 1.”, “the phytoene and phytofluene (phytoene) mixture” for “the astaxanthin”, “(FIG. 4A).” for “(FIG. 1A).”, “and phytoene plus phytofluene” for “and astaxanthin”, “(FIG. 4B)” for “(FIG. 1B)”
# FIG. 5. […] MCF-7 mammary cancer cell were preincubated for 24 hours in 0.5% serum and then growth ([^3H]thymidine incorporation) was stimulated by 3% serum. Stimulated cells were treated for 3 days with the indicated concentrations Of the beta-carotene alone or in combination with 0.3 μM lycopene (FIG. 5A). The high concentrations of lycopene and beta-carotene (FIG. 5B) are indicated. Data presented are the mean±SE of 2-3 independent experiments performed in quadruplicates.
# [4] = subjects receiving high supplementation of lycopene; cited from earlier work
# [5] = system: H-ras-induced cell transformation; details: mammalian cells producing phytoene; cited from earlier work
# [6] = system: dimethylbenz(a)anthracene(DMBA)/UV-B induced tumors; details: mice; cited from earlier work
# [7] = system: UV-B induced tumors; details: mice treated with phytoene; cited from earlier work
smiles,measurement,setting,value
CC(C)=CCC/C(C)=C/C=C/C(C)=C/C=C/C(C)=C/C=C/C=C(C)/C=C/C=C(C)/C=C/C=C(\C)CCC=C(C)C [lycopene],in-vitro activity with increasing concentration,[1],improved activity with the increase of concentration
same,effect of lycopene on the inhibitory effects of beta-carotene on DHT induced prostate cancer cell proliferation,"[2]; 0.3 μM lycopene combined with beta-carotene, FIG. 3",enhances the inhibitory effects
same,effect of lycopene on the inhibitory effects of phytoene and phytofluene on DHT induced prostate cancer cell proliferation,"[2]; 0.3 μM lycopene combined with phytoene and phytofluene mixture, FIG. 2",enhances the inhibitory effects
same,effect of lycopene on the inhibitory effects of astaxanthin on mammary cancer cell proliferation,"[3]; MCF-7, 0.3 μM lycopene combined with astaxanthin, 3 days, FIG. 1",enhances the inhibitory effects
same,effect of lycopene on the inhibitory effects of beta-carotene on mammary cancer cell proliferation,"[3]; MCF-7, 0.3 μM lycopene combined with beta-carotene, 3 days, FIG. 5",enhances the inhibitory effects
same,effect of lycopene on the inhibitory effects of phytoene and phytofluene on mammary cancer cell proliferation,"[3]; MCF-7, 0.3 μM lycopene combined with phytoene and phytofluene mixture, 3 days, FIG. 4",enhances the inhibitory effects
same,decrease in proliferation,"[3]; breast cancer cells, lycopene alone at low concentration (0.3 μM)",no decrease in proliferation
same,concentration of lycopene alone giving the same dramatic inhibition of cancer cells as the combination,[3]; lycopene alone,2 to 3 µM
same,serum concentration plateau,[4],1000 to 1200 nM
CC(C)=CCC/C(C)=C/CC/C(C)=C/CC/C(C)=C/C=C/C=C(\C)CC/C=C(\C)CC/C=C(\C)CCC=C(C)C [phytoene],resistance to H-ras-induced cell transformation,[5],displayed resistance
same,treating DMBA/UV-B induced tumors,[6],ineffective
same,UV-B induced tumors developed versus control mice,[7],fewer UV-B induced tumors than the control mice
